Measured values as given in US12622887B2 (priority 2019, dated 2026).

Experiments:
αKlotho = test: Release of soluble αKlotho in supernatant of primary tubule cell cultures (RPTEC), ELISA; format: cell-based; conditions: for Average Klotho value: RPTEC supernatant
Method: Concentrations of H2O2 equal to 0.1, 0.2, 0.5 up to 1 mM were also tested. […] The soluble aKlotho analysis was performed using the commercial test ELISA lbl code 277789 following the manufacturer's instructions. […] The soluble aKlotho analysis was performed using ELISA lbl test.

[1] = test system: primary renal tubule cells; test: MTT test, cell proliferation/viability of primary renal tubule cells; format: cell-based; conditions: tubule cells exposed to H2O2 0.5 mM alone

SMILES: OO [H2O2]
- Lowest concentration able to induce a statistically significant reduction in Klotho (αKlotho; 6 hours exposure of primary tubule cells): 0.1 mM
- Average Klotho value (αKlotho; H2O2 6 h alone (0.1 mM), no pretreatment): 55.42 pg/mL
- Cell viability (MTT test) [1]: significant reduction in cell viability

SMILES: CC(=O)N(CC(O)CN(C(C)=O)c1c(I)c(C(=O)NCC(O)CO)c(I)c(C(=O)NCC(O)CO)c1I)c1c(I)c(C(=O)NCC(O)CO)c(I)c(C(=O)NCC(O)CO)c1I (centres unmarked) [Iodixanol]
- Change in Klotho compared to the basal condition (αKlotho; Iodixanol contrast medium only, 6 hours): drastic reduction in Klotho
- Average Klotho value (αKlotho; Iodixanol 100 mg/ml 6 h alone): 0 pg/mL

SMILES: C[N+](C)(C)C[C@H](O)CC(=O)[O-] [Carnitine, L-Carnitine]
- Average Klotho value (αKlotho; pre-treatment 12 h at 5 mM, then 6 h Gentamicin sulphate 10 mM): 6.68 pg/mL
- Average Klotho value (αKlotho; pre-treatment 12 h at 5 mM, then 6 h Iodixanol 100 mg/ml): 77.06 pg/mL
- Average Klotho value (αKlotho; pretreatment 12 h at 5 mM, then 6 h H2O2 0.1 mM): 140.25 pg/mL
